This is an account of results in patent US20080260834A1, “VITAMIN D3 ANALOG LOADED POLYMER FORMULATIONS FOR CANCER AND NEURODEGENERATIVE DISORDERS” (priority 2002, published 2008).

One data set relates to B16 (malignant melanoma). As to the kind of experiment: In vitro proliferation assay, B16. The data set is classed as cell-based, murine. As for the experimental part: (§1) All cell lines were grown and propagated in RPMI medium at 37° C. in 5% CO2. Cultured cells were trypsinized and plated in triplicate at 10,000 cells/well in Falcon 24 well tissue culture plates. […] When control wells neared confluence, cell number was determined for each well as an average of two readings on a ZM Coulter Counter Results are expressed as the average cell number for each drug treatment group divided by the average cell number for the drug free control group (designated as % OF CONTROL) vs. the concentration of drug or analog.

Data set [1] deals with RENCA (renal cell carcinoma). Nature of the data set: In vitro proliferation assay, RENCA. It is filed as cell-based, murine. As for the experimental part: as §1
The test system of data set [2] is EMT6 (breast cell carcinoma). Nature of the data set: In vitro proliferation assay, EMT6. The data set is classed as cell-based, murine. As to the method: as §1
The subject of a further data set is CT26 (colon carcinoma). Nature of the data set: In vitro proliferation assay, CT26. The data set is classed as cell-based, murine. Conditions: at 1000 nM against CT26 (p<0.01, data not shown). As to the method:
as §1

Another data set concerns B16 melanoma cells. Nature of the data set: Exposure time dependence study, B16. It is filed as cell-based, murine. Conditions: 10 μM; exposure 1, 2, 10, 24, 96 hours; counted at 96 hours. As for the experimental part: In a series of exposure time dependence studies, B16 melanoma cells were trypsinized, suspended, and plated as before. […] Then at 1, 2, 10, 24, and 96 hours, the drug containing media was removed and replaced with fresh media containing only solvent. […] At the 96 hour time point, all groups were trypsinized and cell number was determined as before.

Data set [3] is described as follows: Calcemic activity, daily intraperitoneal injections in mice. It is filed as in vivo, C57/B16 mice. The following applies: for weight loss: 7 days; for blood ionized calcium: day 7. As for the experimental part: Twenty-seven C57/B16 mice (n=3 per group), received daily intraperitoneal injections solution containing one of the three drugs at on of the following doses: […] (corresponding to 0.02, 0.2, or 2 mg/day respectively). Nine animals received daily intraperitoneal injections of solvent only to serve as control. Animal weights were monitored daily at the time of injection. On day 7, all animals were sacrificed and blood was collected via cardiac puncture and quantitatively analyzed for ionized calcium content at the Critical Care Lab at Johns Hopkins Hospital.

Data set [4] in a line: Hypercalcemic toxicity of wafers, intraflank vs intracranial. The data set is classed as in vivo,  mice. Conditions: 5 mg pCPP:SA wafer loaded 0.1%; for weight loss: 7 days; for blood ionized calcium levels: day 7. An excerpt:
Animal weights were monitored daily and blood was collected for quantitative ionized calcium analysis via cardiac puncture on day 7 post-implantation.

For data set [5] the following is noted: cited from earlier work.

Structures are written as SMILES. Like-named read-outs stand apart in the source and are kept apart here.

With `C=C1/C(=C\C=C2/CCCC3(C)[C@@H]([C@H](C)CCCC(C)(C)O)CC[C@@H]23)C[C@@H](O)CC1O` (some centres unmarked) [1,25 D3, 1,25-Dihydroxyvitamin D3], the EC50 came to 15 nM in the data set on B16 (malignant melanoma) (Mus musculus); 153 nM in data set [1] (Mus musculus, Renca); 160 nM in data set [2] (Mus musculus, EMT6). The antiproliferative activity result (in the data set on B16 (malignant melanoma) (at 10 nM against B16 (p<0.03)); in data set [1] (at 10 nM against RENCA (p<0.03)); in data set [2] (at 100 nM against EMT6 (p<0.01)); in the data set with CT26 (colon carcinoma)) was “significant antiproliferative activity” in each case. Also, the “exposure time dependence of antiproliferative activity” value in the data set with B16 melanoma cells is reported as “exposure time dependent”. Further, the weight loss result is given as “substantial weight loss” in data set [3] (1 mg/kg/day i.p.); “substantial weight loss” in data set [3] (10 mg/kg/day i.p.); “substantial weight loss” in data set [4] (intracranial); “substantial weight loss” in data set [4] (intraflank); “weight loss was observed” in data set [5] (120 ng/day i.c.v.). Moreover, the blood ionized calcium result in data set [3] (1 mg/kg/day i.p.) and in data set [3] (10 mg/kg/day i.p.) was “dramatic rises in blood ionized calcium levels” throughout. The “condition of the animals” value is “severely compromised” in data set [3] (100 mg/kg/day i.p.) and “severely compromised” in data set [5] (240 ng/day i.c.v., by day 6). The “blood ionized calcium levels” value in data set [4] (intracranial) and in data set [4] (intraflank) was “dramatic rises in blood ionized calcium levels” each time. In addition, in data set [5] (60 ng/day i.c.v., after 6 days), the serum calcium result is on record as “rise in serum calcium”.
